Test results: patent US11648254B2 (Kumquat Biosciences Inc., priority 2021, dated 2023)
Where two headings read alike, the source gives them in different places.

Legend:
[1] = system: MIA PaCa-2 cells (K-Ras G12C); assay: Ras-SOS cellular growth inhibition assay (CellTiter-Glo, 3D); assay type: cell-based; settings: Homo sapiens
Summary of the method: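 MIA PaCa-2 cells grown in ultra-low-attachment plates (3D) in DMEM/Ham's F12 with 10% FCS and 2.5% horse serum, treated the day after seeding with a 9-point 3-fold compound series for about 5 days. Viability by CellTiter-Glo luminescence; IC50 from four-parameter fit.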

[2] = system: NCI-H1975 cells (EGFR T790M L858R); assay: EGFR-SOS cellular inhibition assay (CellTiter-Glo, 3D); assay type: cell-based; settings: Homo sapiens
SOS1 = SOS1 (Homo sapiens (Human), UniProt Q07889); assay: Ras-SOS interaction assay (HTRF); assay type: biochemical
Chain of SOS1 (Q07889 564-1049): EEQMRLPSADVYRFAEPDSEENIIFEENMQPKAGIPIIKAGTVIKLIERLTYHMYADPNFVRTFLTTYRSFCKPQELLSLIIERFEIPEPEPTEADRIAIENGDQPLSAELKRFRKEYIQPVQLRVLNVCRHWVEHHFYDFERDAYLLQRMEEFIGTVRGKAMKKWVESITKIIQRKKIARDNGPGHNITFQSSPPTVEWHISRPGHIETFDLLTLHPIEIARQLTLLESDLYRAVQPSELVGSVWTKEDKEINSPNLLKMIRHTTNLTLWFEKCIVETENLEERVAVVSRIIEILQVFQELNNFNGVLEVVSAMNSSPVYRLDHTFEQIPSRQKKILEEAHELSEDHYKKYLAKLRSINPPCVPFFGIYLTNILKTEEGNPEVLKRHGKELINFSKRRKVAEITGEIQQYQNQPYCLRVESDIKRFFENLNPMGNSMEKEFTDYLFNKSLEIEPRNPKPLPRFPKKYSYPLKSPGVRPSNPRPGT

[3] = MIA PaCa-2, 120 h, MIA PaCa-2, 3D proliferation, about 5 days, read-out: Bio-Cell-Prolif-3D (MiaPaca2 IC50)
[4] = MIA PaCa-2, MIA PaCa-2, read-out: IC50 in inhibiting MIA PaCa-2 cell growth
[5] = 120 h, NCI-H1975, 3D proliferation, about 5 days, read-out: Bio-Cell-Prolif-3D (H1975 IC50)
[6] = NCI-H1975, EGFR T790M L858R, read-out: IC50 in inhibiting growth of NCI-H1975 cell line
[7] = K-RasG13D utilized, read-out: IC50 inhibition of SOS
[8] = K-RasG13D, read-out: IC50 value against SOS1

For `CC(C)N1CCC(C(F)(F)c2cccc([C@@H](C)Nc3ncnc4nc(Cl)c(N5CCN(C(C)C)CC5)cc34)c2F)CC1` [Compound 224, (R)-7-chloro-N-(1-(3-(difluoro(1-isopropylpiperidin-4-yl)methyl)-2-fluorophenyl)ethyl)-6-(4-isopropylpiperazin-1-yl)pyrido[2,3-d]pyrimidin-4-amine], the IC50 [1, 3] was no more than 1000 nM, the IC50 [1, 4] was less than 500 nM and the IC50 [2, 5] was no more than 1000 nM. For the same compound, the IC50 [2, 6] was less than 500 nM, the IC50 (SOS1; [7]) was less than 100 nM and the IC50 (SOS1; [8]) was less than 50 nM.
`Cc1nc(N[C@H](C)c2cccc(C(F)F)c2F)c2cc(C3(C#N)CC3)c(O[C@@H]3CCN(C)C3)nc2n1` [Compound 226, 1-(4-(((R)-1-(3-(difluoromethyl)-2-fluorophenyl)ethyl)amino)-2-methyl-7-(((R)-1-methylpyrrolidin-3-yl)oxy)pyrido[2,3-d]pyrimidin-6-yl)cyclopropane-1-carbonitrile] was tested, and the IC50 [1, 3] was 1000 to 10000 nM, the IC50 [2, 5] was no more than 1000 nM and the IC50 [2, 6] was less than 500 nM. For the same compound, the IC50 (SOS1; [7]) was less than 100 nM.
With `C[C@@H](Nc1ncnc2nc(OC3COC3)c(C3CCS(=O)(=O)CC3)cc12)c1cccc(C(F)F)c1F` [Compound 227, (R)-4-(4-((1-(3-(difluoromethyl)-2-fluorophenyl)ethyl)amino)-7-(oxetan-3-yloxy)pyrido[2,3-d]pyrimidin-6-yl)tetrahydro-2H-thiopyran 1,1-dioxide] the IC50 [1, 3] was no more than 1000 nM, the IC50 [2, 5] was no more than 1000 nM and the IC50 (SOS1; [7]) was less than 100 nM. The IC50 (SOS1; [8]) was less than 50 nM.
For `Cc1nc(N[C@H](C)c2cccc(C(F)F)c2F)c2cc(C3CCS(=O)(=O)CC3)c(OC3COC3)nc2n1` [Compound 229, (R)-4-(4-((1-(3-(difluoromethyl)-2-fluorophenyl)ethyl)amino)-2-methyl-7-(oxetan-3-yloxy)pyrido[2,3-d]pyrimidin-6-yl)tetrahydro-2H-thiopyran 1,1-dioxide], the IC50 [1, 3] was no more than 1000 nM, the IC50 [2, 5] was no more than 1000 nM and the IC50 (SOS1; [7]) was less than 100 nM. It also gave an IC50 (SOS1; [8]) of less than 50 nM.
In the case of `C[C@@H](Nc1ncnc2nc(OC3COC3)c(N3CCS(=O)(=O)CC3)cc12)c1cccc(C(F)F)c1F` [Compound 231, (R)-4-(4-((1-(3-(difluoromethyl)-2-fluorophenyl)ethyl)amino)-7-(oxetan-3-yloxy)pyrido[2,3-d]pyrimidin-6-yl)thiomorpholine 1,1-dioxide], the IC50 [1, 3] is reported as no more than 1000 nM, the IC50 [2, 5] is reported as 1000 to 10000 nM and the IC50 (SOS1; [7]) is reported as less than 100 nM. It also gave an IC50 (SOS1; [8]) of less than 50 nM.
Compound `Cc1nc(N[C@H](C)c2cccc(C(F)F)c2F)c2cc(C3(C#N)CC3)c(OC3CCN(C)CC3)nc2n1` [Compound 232, (R)-1-(4-((1-(3-(difluoromethyl)-2-fluorophenyl)ethyl)amino)-2-methyl-7-((1-methylpiperidin-4-yl)oxy)pyrido [2,3-d]pyrimidin-6-yl)cyclopropane-1-carbonitrile] has an IC50 [1, 3] of no more than 1000 nM, an IC50 [1, 4] of less than 500 nM and an IC50 [2, 5] of no more than 1000 nM. It also gave an IC50 [2, 6] of less than 500 nM, an IC50 (SOS1; [7]) of less than 100 nM and an IC50 (SOS1; [8]) of less than 50 nM.
`Cc1nc(N[C@H](C)c2cccc(C(F)F)c2F)c2cc(C3(C#N)CC3)c(O[C@H]3CCN(C)C3)nc2n1` [Compound 233, 1-(4-(((R)-1-(3-(difluoromethyl)-2-fluorophenyl)ethyl)amino)-2-methyl-7-(((S)-1-methylpyrrolidin-3-yl)oxy)pyrido [2,3-d]pyrimidin-6-yl)cyclopropane-1-carbonitrile] gave an IC50 [1, 3] of no more than 1000 nM, an IC50 [1, 4] of less than 500 nM and an IC50 [2, 5] of no more than 1000 nM. The IC50 [2, 6] was less than 500 nM, the IC50 (SOS1; [7]) was less than 100 nM and the IC50 (SOS1; [8]) was less than 50 nM.
In the case of `Cc1nc(N[C@H](C)c2cccc(C(F)F)c2F)c2cc(C3(C#N)CC3)c(OC[C@H]3CCCN3C)nc2n1` [Compound 235, 1-(4-(((R)-1-(3-(difluoromethyl)-2-fluorophenyl)ethyl)amino)-2-methyl-7-(((R)-1-methylpyrrolidin-2-yl)methoxy)pyrido [2,3-d]pyrimidin-6-yl)cyclopropane-1-carbonitrile], the IC50 [1, 3] is reported as no more than 1000 nM, the IC50 [2, 5] is reported as no more than 1000 nM and the IC50 [2, 6] is reported as less than 500 nM. The IC50 (SOS1; [7]) was less than 100 nM and the IC50 (SOS1; [8]) was less than 50 nM.
With `COc1nc2nc(C)nc(N[C@H](C)c3cccc(C(F)(F)CCC4CN(C(C)C)C4)c3F)c2cc1C1CCS(=O)(=O)CC1` [Compound 238, (R)-4-(4-((1-(3-(1,1-difluoro-3-(1-isopropylazetidin-3-yl)propyl)-2-fluorophenyl)ethyl)amino)-7-methoxy-2-methylpyrido[2,3-d]pyrimidin-6-yl)tetrahydro-2H-thiopyran 1,1-dioxide] the IC50 [1, 3] was no more than 1000 nM, the IC50 [1, 4] was less than 500 nM and the IC50 [2, 5] was no more than 1000 nM. For the same compound, the IC50 [2, 6] was less than 500 nM, the IC50 (SOS1; [7]) was less than 100 nM and the IC50 (SOS1; [8]) was less than 50 nM.
Work on `COc1nc2nc(C)nc(N[C@H](C)c3cccc(C(F)(F)CO)c3)c2cc1C1CCS(=O)(=O)CC1` [Compound 239, (R)-4-(4-((1-(3-(1,1-difluoro-2-hydroxyethyl)phenyl)ethyl)amino)-7-methoxy-2-methylpyrido[2,3-d]pyrimidin-6-yl)tetrahydro-2H-thiopyran 1,1-dioxide] yielded an IC50 [1, 3] of no more than 1000 nM, an IC50 [1, 4] of less than 500 nM and an IC50 [2, 5] of no more than 1000 nM. The IC50 [2, 6] was less than 500 nM, the IC50 (SOS1; [7]) was less than 100 nM and the IC50 (SOS1; [8]) was less than 50 nM.
`COc1nc2nc(OC3CN(C(C)C)C3)nc(N[C@H](C)c3cccc(C(F)F)c3F)c2cc1C1(C#N)CC1` [Compound 240, (R)-1-(4-((1-(3-(difluoromethyl)-2-fluorophenyl)ethyl)amino)-2-((1-isopropylazetidin-3-yl)oxy)-7-methoxypyrido[2,3-d]pyrimidin-6-yl)cyclopropane-1-carbonitrile] gave an IC50 [1, 3] of no more than 1000 nM, an IC50 [1, 4] of less than 500 nM and an IC50 [2, 5] of no more than 1000 nM. It also gave an IC50 [2, 6] of less than 500 nM and an IC50 (SOS1; [7]) of 100 to 1000 nM.
With `COc1nc2nc(C)nc(N[C@H](C)c3cccc(C(F)(F)C(C)(C)OC4CN(C(C)C)C4)c3F)c2cc1N1CCN(C(C)C)CC1` [Compound 242, (R)-N-(1-(3-(1,1-difluoro-2-((1-isopropylazetidin-3-yl)oxy)-2-methylpropyl)-2-fluorophenyl)ethyl)-6-(4-isopropylpiperazin-1-yl)-7-methoxy-2-methylpyrido[2,3-d]pyrimidin-4-amine] the IC50 [1, 3] was no more than 1000 nM, the IC50 [1, 4] was less than 500 nM and the IC50 [2, 5] was no more than 1000 nM. The IC50 [2, 6] was less than 500 nM, the IC50 (SOS1; [7]) was less than 100 nM and the IC50 (SOS1; [8]) was less than 50 nM.
`COc1nc2nc(C)nc(N[C@H](C)c3cccc(C(F)(F)C(C)(C)OC4CNC4)c3F)c2cc1N1CCN(C(C)C)CC1` [Compound 243, (R)-N-(1-(3-(2-(azetidin-3-yloxy)-1,1-difluoro-2-methylpropyl)-2-fluorophenyl)ethyl)-6-(4-isopropylpiperazin-1-yl)-7-methoxy-2-methylpyrido[2,3-d]pyrimidin-4-amine] gave an IC50 [1, 3] of no more than 1000 nM, an IC50 [1, 4] of less than 500 nM and an IC50 [2, 5] of no more than 1000 nM. It also gave an IC50 [2, 6] of less than 500 nM, an IC50 (SOS1; [7]) of less than 100 nM and an IC50 (SOS1; [8]) of less than 50 nM.
`Cc1nc(N[C@H](C)c2cccc(C(F)(F)C(C)(C)O)c2F)c2cc(C3(C#N)CC3)c(N3CCN(C(C)C)CC3)nc2n1` [Compound 244, (R)-1-(4-((1-(3-(1,1-difluoro-2-hydroxy-2-methylpropyl)-2-fluorophenyl)ethyl)amino)-7-(4-isopropylpiperazin-1-yl)-2-methylpyrido[2,3-d]pyrimidin-6-yl)cyclopropane-1-carbonitrile] was tested, and the IC50 [1, 3] was no more than 1000 nM, the IC50 [1, 4] was less than 500 nM and the IC50 [2, 5] was no more than 1000 nM. For the same compound, the IC50 [2, 6] was less than 500 nM, the IC50 (SOS1; [7]) was less than 100 nM and the IC50 (SOS1; [8]) was less than 50 nM.
